# Experimental data reported in patent US5602106A, “16-membered macrolide derivatives” (priority 1993, dated 1997).
# Read-outs that look alike come from different tables or passages of the source.
# What was measured:
# Format in all cases: cell-based
# B. catarrhalis W-0400 = experiment: MIC, agar plate dilution method; conditions: Moraxella catarrhalis, W0400, 20 h, read-out: Antimicrobial activity (MIC)
# Procedure: (§1) The effect of the first aspect of the present invention resides in the creation of a novel and useful 16-membered macrolide derivative. Antimicrobial activities of the compounds of the present invention were determined by measuring minimum inhibitory concentration (MIC). Minimum inhibitory concentration was determined by the agar plate dilution method in the following manner.
# (§2) Test strains were subjected to seed culture using Sensitivity test broth (STB, Nissui Pharmaceutical) except that the strains belonging to the genus Streptococcus, Branhamella and Haemophilus were cultured on blood agar plate. A 5 μl portion of cell suspension of the test strains having about 10^6 CFU/ml was inoculated into Sensitivity disk agar (SDA, Nissui Pharmaceutical) supplemented with 5% horse blood and incubated at 37° C. for 20 hours. Then, MIC was measured. […] Antimicrobial activities in vitro of the compounds (1) and (2) are shown in Table 1, and those of the compounds (3) and (4) in Table 3.
# B. catarrhalis W-0500 = experiment: MIC, agar plate dilution method; conditions: Moraxella catarrhalis
# Procedure: as §1, §2
# B. catarrhalis W-0506 = experiment: MIC, agar plate dilution method; conditions: for MIC: Moraxella catarrhalis
# Procedure: as §1, §2
# E. coli NIHJ JC-2 = experiment: MIC, agar plate dilution method; conditions: 37° C., SDA with 5% horse blood; for MIC: Escherichia coli, NIHJJC2, 20 h, read-out: Antimicrobial activity (MIC)
# Procedure: as §1, §2
# E. faecalis W-73 = experiment: MIC, agar plate dilution method; conditions: Enterococcus faecalis, W73, 20 h, read-out: Antimicrobial activity (MIC)
# Procedure: as §1, §2
# H. influenzae 9334 = experiment: MIC, agar plate dilution method
# Procedure: as §1, §2
# H. influenzae Type b = experiment: MIC, agar plate dilution method; conditions: Haemophilus influenzae
# Procedure: as §1, §2
# K. pneumoniae PCI602 = experiment: MIC, agar plate dilution method; conditions: 37° C., SDA with 5% horse blood; for MIC: Klebsiella pneumoniae, PCI602, 20 h, read-out: Antimicrobial activity (MIC)
# Procedure: as §1, §2
# M. luteus ATCC9341 = experiment: MIC, agar plate dilution method; conditions: Micrococcus luteus, ATCC9341; 37° C., 20 hours, SDA with 5% horse blood; read-out: Antimicrobial activity (MIC)
# Procedure: as §1, §2
# S. aureus 209P JC-1 = experiment: MIC, agar plate dilution method; conditions: for MIC: Staphylococcus aureus, 209P, 20 h
# Procedure: as §1, §2
# S. aureus M126 = experiment: MIC, agar plate dilution method; conditions: Staphylococcus aureus, 37° C., 20 hours, SDA with 5% horse blood, read-out: Antimicrobial activity (MIC)
# Procedure: as §1, §2
# S. aureus MS15009/pMS98 = experiment: MIC, agar plate dilution method; conditions: Staphylococcus aureus, MS15009/PMS98, 20 h, read-out: Antimicrobial activity (MIC), 37° C., 20 hours, SDA with 5% horse blood
# Procedure: as §1, §2
# S. aureus MS15009/pMS99 = experiment: MIC, agar plate dilution method; conditions: Staphylococcus aureus, MS15009/PMS99, 20 h, read-out: Antimicrobial activity (MIC)
# Procedure: as §1, §2
# S. aureus MS15026 = experiment: MIC, agar plate dilution method; conditions: Staphylococcus aureus, 37° C., 20 hours, SDA with 5% horse blood, read-out: Antimicrobial activity (MIC)
# Procedure: as §1, §2
# S. aureus MS15027 = experiment: MIC, agar plate dilution method; conditions: Staphylococcus aureus
# Procedure: as §1, §2
# S. epidermidis ATCC14990 = experiment: MIC, agar plate dilution method; conditions: Staphylococcus epidermidis
# Procedure: as §1, §2
# S. pneumoniae IP692 = experiment: MIC, agar plate dilution method; conditions: Streptococcus pneumoniae, IP692, 20 h, 37° C., 20 hours, SDA with 5% horse blood; read-out: Antimicrobial activity (MIC)
# Procedure: as §1, §2
# S. pneumoniae Type 1 = experiment: MIC, agar plate dilution method; conditions: Streptococcus pneumoniae, TYPE1; 37° C., 20 hours, SDA with 5% horse blood; read-out: Antimicrobial activity (MIC)
# Procedure: as §1, §2
# S. pyogenes Cook = experiment: MIC, agar plate dilution method; conditions: Streptococcus pyogenes; 37° C., 20 hours, SDA with 5% horse blood; read-out: Antimicrobial activity (MIC)
# Procedure: as §1, §2
# S. aureus M133 = experiment: MIC, agar plate dilution method; conditions: Staphylococcus aureus, M133, 20 h
# Procedure: as §1, §2
# test strains = experiment: Antimicrobial activity in vitro, test strains overall; conditions: for antimicrobial activities compared with compound (58): vs compound (58); for antimicrobial activities in comparison with rokitamycin: vs rokitamycin
# Procedure: as §1, §2
# [1] = tested on: clinically important Gram-positive bacteria; experiment: Antimicrobial activity / growth inhibition
# Procedure: as §1, §2
# [2] = W0500, 20 h, read-out: Antimicrobial activity (MIC), 37° C., 20 hours, SDA with 5% horse blood
# [3] = 37° C., 20 hours, SDA with 5% horse blood
# [4] = W0506, 20 h, read-out: Antimicrobial activity (MIC), 37° C., 20 hours, SDA with 5% horse blood
# [5] = 20 h, read-out: Antimicrobial activity (MIC), 37° C., 20 hours, SDA with 5% horse blood
# [6] = 37° C., 20 hours, SDA with 5% horse blood, read-out: Antimicrobial activity (MIC)
# [7] = MS15027, 20 h, read-out: Antimicrobial activity (MIC), 37° C., 20 hours, SDA with 5% horse blood
# [8] = ATCC14990, 20 h, read-out: Antimicrobial activity (MIC), 37° C., 20 hours, SDA with 5% horse blood
# [9] = Haemophilus influenzae, 9334, 20 h, read-out: Antimicrobial activity (MIC), 37° C., 20 hours, SDA with 5% horse blood
# [10] = read-out: Antimicrobial activity (MIC), 37° C., 20 hours, SDA with 5% horse blood
SMILES,MIC (B. catarrhalis W-0500; [2]),MIC (B. catarrhalis W-0506; [4]),MIC (E. coli NIHJ JC-2),MIC (E. faecalis W-73),MIC (H. influenzae Type b; [5]),MIC (K. pneumoniae PCI602),MIC (M. luteus ATCC9341),MIC (S. aureus 209P JC-1; [6]),MIC (S. aureus M126),MIC (S. aureus MS15009/pMS98),MIC (S. aureus MS15009/pMS99),MIC (S. aureus MS15026),MIC (S. aureus MS15027; [7]),MIC (S. epidermidis ATCC14990; [8]),MIC (S. pneumoniae IP692),MIC (S. pneumoniae Type 1),MIC (S. pyogenes Cook),MIC (H. influenzae 9334; [9]),MIC (S. aureus M133; [10]),antimicrobial activities (in words) [1],other results
"CC[C@H]1OC(=O)[C@H](C)[C@@H](O[C@H]2C[C@@](C)(OC)[C@@H](O)[C@H](C)O2)[C@H](C)[C@@H](O[C@@H]2O[C@H](C)C[C@H](N(C)C)[C@H]2O)[C@](C)(OC)C[C@@H](C)C(=O)[C@H](C)[C@@H](O)[C@]1(C)O [CAM, clarithromycin, reference compound]",0.2 µg/mL,0.2 µg/mL,100 µg/mL,0.78 µg/mL,6.25 µg/mL,100 µg/mL,< 0.025 µg/mL,0.05 µg/mL,> 100 µg/mL,> 100 µg/mL,> 100 µg/mL,> 100 µg/mL,> 100 µg/mL,0.1 µg/mL,< 0.025 µg/mL,< 0.025 µg/mL,< 0.025 µg/mL,–,–,–,"MIC (B. catarrhalis W-0400): 0.1 µg/mL; Antimicrobial activity (MIC) (B. catarrhalis W-0506; [3]): 0.10 µg/mL; Antimicrobial activity (MIC) (E. coli NIHJ JC-2; 20 hours): 50 µg/mL; MIC (H. influenzae 9334; Haemophilus influenzae, 9334, 37° C., 20 hours, SDA with 5% horse blood, read-out: Antimicrobial activity (MIC)): 1.56 µg/mL; Antimicrobial activity (MIC) (K. pneumoniae PCI602; 20 hours): 50 µg/mL; Antimicrobial activity (MIC) (S. aureus 209P JC-1; [3]): 0.10 µg/mL; MIC (S. aureus MS15027; MS15027, 37° C., 20 hours, SDA with 5% horse blood, read-out: Antimicrobial activity (MIC)): 1.56 µg/mL"
"CCCCC(=O)O[C@H]1[C@H](C)O[C@@H](O[C@H]2[C@H](N(C)C)[C@@H](O)[C@H](O[C@H]3[C@@H](CC=O)C[C@@H](C)[C@@H](O)/C=C/C=C/C[C@@H](C)OC(=O)C[C@@H](O)[C@@H]3OC)O[C@@H]2C)C[C@@]1(C)OC [(48), 3""-O-methyl-4""-O-n-valerylleucomycin V]",0.1 µg/mL,0.2 µg/mL,> 100 µg/mL,0.78 µg/mL,6.25 µg/mL,> 100 µg/mL,< 0.025 µg/mL,0.05 µg/mL,> 100 µg/mL,0.2 µg/mL,> 100 µg/mL,> 100 µg/mL,0.2 µg/mL,0.2 µg/mL,< 0.025 µg/mL,< 0.025 µg/mL,< 0.025 µg/mL,0.78 µg/mL,0.2 µg/mL,markedly strong microbial activities,antimicrobial activities compared with compound (58) (test strains): slightly superior antimicrobial activities; antimicrobial activities in comparison with rokitamycin (test strains): markedly excellent antimicrobial activities
"CO[C@@H]1[C@@H](O[C@@H]2O[C@H](C)[C@@H](O[C@H]3C[C@@](C)(OC)[C@@H](OC(=O)CC(C)C)[C@H](C)O3)[C@H](N(C)C)[C@H]2O)[C@@H](CC=O)C[C@@H](C)[C@@H](O)/C=C/C=C/C[C@@H](C)OC(=O)C[C@H]1O [(58), 3""-O-methylleucomycin A1]",0.2 µg/mL,0.2 µg/mL,> 100 µg/mL,0.78 µg/mL,6.25 µg/mL,> 100 µg/mL,< 0.025 µg/mL,0.05 µg/mL,> 100 µg/mL,0.2 µg/mL,> 100 µg/mL,> 100 µg/mL,0.2 µg/mL,0.2 µg/mL,0.05 µg/mL,0.05 µg/mL,0.05 µg/mL,0.78 µg/mL,0.39 µg/mL,markedly strong microbial activities,–
"CCCC(=O)O[C@H]1[C@H](C)O[C@@H](O[C@H]2[C@H](N(C)C)[C@@H](O)[C@H](O[C@H]3[C@@H](CC=O)C[C@@H](C)[C@@H](O)/C=C/C=C/C[C@@H](C)OC(=O)C[C@@H](O)[C@@H]3OC)O[C@@H]2C)C[C@@]1(C)OC [(33), 3""-O-methylleucomycin A5]",–,0.2 µg/mL,> 100 µg/mL,0.78 µg/mL,–,100 µg/mL,< 0.025 µg/mL,0.05 µg/mL,> 100 µg/mL,0.1 µg/mL,> 100 µg/mL,> 100 µg/mL,0.2 µg/mL,0.2 µg/mL,< 0.025 µg/mL,< 0.025 µg/mL,< 0.025 µg/mL,0.2 µg/mL,0.2 µg/mL,–,MIC (B. catarrhalis W-0400): 0.1 µg/mL; MIC (H. influenzae Type b; [6]): 1.56 µg/mL; antimicrobial activities compared with clarithromycin (test strains; vs clarithromycin): completely comparable to those of clarithromycin; antimicrobial activities in comparison with compound (2) (test strains; vs compound (2)): generally improved antimicrobial activities; antimicrobial activities in comparison with rokitamycin (test strains): markedly excellent antimicrobial activities in vitro
"CO[C@@H]1[C@@H](O[C@@H]2O[C@H](C)[C@@H](O[C@H]3C[C@@](C)(OC)[C@@H](OC(=O)C(C)C)[C@H](C)O3)[C@H](N(C)C)[C@H]2O)[C@@H](CC=O)C[C@@H](C)[C@@H](O)/C=C/C=C/C[C@@H](C)OC(=O)C[C@H]1O [(53), 4""-O-isobutyryl-3""-Omethylleucomycin V]",0.2 µg/mL,0.2 µg/mL,> 100 µg/mL,0.78 µg/mL,6.25 µg/mL,> 100 µg/mL,< 0.025 µg/mL,0.05 µg/mL,> 100 µg/mL,0.2 µg/mL,> 100 µg/mL,> 100 µg/mL,0.2 µg/mL,0.2 µg/mL,< 0.025 µg/mL,< 0.025 µg/mL,< 0.025 µg/mL,0.39 µg/mL,0.2 µg/mL,markedly strong microbial activities,antimicrobial activities compared with compound (58) (test strains): slightly superior antimicrobial activities; antimicrobial activities in comparison with rokitamycin (test strains): markedly excellent antimicrobial activities
"CCC(=O)O[C@@H]1CC(=O)O[C@H](C)C/C=C/C=C/[C@H](O)[C@H](C)C[C@H](CC=O)[C@H](O[C@@H]2O[C@H](C)[C@@H](O[C@H]3C[C@@](C)(OC)[C@@H](O)[C@H](C)O3)[C@H](N(C)C)[C@H]2O)[C@H]1OC [(3), 3""-O-methylmidecamycin M1]",–,–,> 100 µg/mL,0.78 µg/mL,50 µg/mL,> 100 µg/mL,0.1 µg/mL,–,> 100 µg/mL,0.78 µg/mL,> 100 µg/mL,> 100 µg/mL,0.78 µg/mL,–,0.1 µg/mL,0.1 µg/mL,0.2 µg/mL,–,–,strong antimicrobial activities,"MIC (B. catarrhalis W-0500; W0500, 37° C., 20 hours, SDA with 5% horse blood, read-out: Antimicrobial activity (MIC)): 3.13 µg/mL; MIC (B. catarrhalis W-0506; W0506, 37° C., 20 hours, SDA with 5% horse blood, read-out: Antimicrobial activity (MIC)): 3.13 µg/mL; MIC (S. aureus 209P JC-1; [10]): 0.39 µg/mL; MIC (S. aureus M133; [6]): 1.56 µg/mL; MIC (S. epidermidis ATCC14990; ATCC14990, 37° C., 20 hours, SDA with 5% horse blood, read-out: Antimicrobial activity (MIC)): 1.56 µg/mL; improvement of MIC values over corresponding compounds with free 3""-hydroxyl (midecamycin M1, leucomycin V) (test strains; most of the test strains): improved two to three times; antimicrobial activities in comparison with midecamycin M1 (test strains; presumed in vivo metabolite of compound (5)): superior antimicrobial activities"
